Data from patent publication EP0268663B1, “PHOSPHOPEPTIDES” (THE UNIVERSITY OF MELBOURNE, priority 1986, dated 1995).
Square brackets hold non-standard residues; d marks the D form. Peptide text beside a SMILES is read from it. pS = N[C@@H](COP(=O)(O)O)C(=O)O

How the values were obtained:
[1] = Sequestration of calcium phosphate by the peptide; assay type: physicochemical; conditions: 10mg/ml solution at pH 7.0; metastable supersaturated solution
Method: The active peptides can sequester calcium phosphate and other salts of divalent metal ions. One mole of T1 binds 16 mole of CaHPO₄ such that a 10mg/ml solution of T1 at pH 7.0 can solubilize 60mM CaHPO₄ producing a metastable supersaturated solution with respect to calcium phosphate species. With chloride as the counter ion one mole of T1 binds only 5 mole of Ca⁺⁺ binding only to serine phosphates. One mole of T1 with about 16 mole of CaHPO₄ bound (M.W. 4883) will henceforth be referred to as calcium phosphate T1.

Intra-Oral Caries Test = assay type: in vivo; conditions: plaque exposed twice a day to the peptide T1 solution (1.8% w/v calcium phosphate T1)
Method: The anticariogenicity of phosphopeptide T1 was determined using a modification of the intra-oral caries test of Koulourides and Ostrom (Caries Res. 10:442-482, 1976). Enamel slabs were inset in a removable intra-oral appliance to simulate an approximal area. This was done on both sides of the removable appliance (left and right). The appliance was worn to allow plaque accumulation in the simulated approximal areas. Eight times a day the appliance was removed and placed in a solution at 37°C. The solution was 2% w/v sucrose, 2% w/v glucose, 140 mM KCl, 20mM NaCl at pH 7.0. Twice a day the right side enamel slabs received exposure to a solution containing 1.8% w/v calcium phosphate T1 in 140 mM KCl, 20 mM NaCl at pH 7.0, while the left side received only the salt solution. At the completion of the experiment the enamel slabs were removed, sectioned and subjected to microradiography and microhardnass testing. […] The results were confirmed by microhardness analysis. Plaque was also taken from both sides of the appliance and analysed for calcium phosphate, serine phosphate and peptide T1 using a competitive, quantitative, enzyme-linked immunosorbent assay (ELISA) utilising monoclonal antipeptide T1 antibodies.

CaHPO₄ solubilized [1]: 60 mM
level of peptide in plaque (ELISA) (Intra-Oral Caries Test): at least 0.4 % w/wet wt of plaque
SMILES: CC[C@H](C)[C@H](NC(=O)[C@H](COP(=O)(O)O)NC(=O)[C@H](CCC(=O)O)NC(=O)[C@H](C)NC(=O)[C@H](CCC(=O)O)NC(=O)[C@H](CCSC)NC(=O)[C@@H](N)CCC(=O)O)C(=O)N[C@@H](COP(=O)(O)O)C(=O)N[C@@H](COP(=O)(O)O)C(=O)N[C@@H](COP(=O)(O)O)C(=O)N[C@@H](CCC(=O)O)C(=O)N[C@@H](CCC(=O)O)C(=O)N[C@H](C(=O)N[C@H](C(=O)N1CCC[C@H]1C(=O)N[C@@H](CC(N)=O)C(=O)N[C@@H](COP(=O)(O)O)C(=O)N[C@H](C(=O)N[C@@H](CCC(=O)O)C(=O)N[C@@H](CCC(N)=O)C(=O)N[C@@H](CCCCN)C(=O)O)C(C)C)C(C)C)[C@@H](C)CC [Phosphopeptide T1] (H-EMEAE[pS]I[pS][pS][pS]EEIVPN[pS]VEQK-OH)
